Reference: US20030225049A1, “Method of treatment for increasing the number of NMDA receptors in a mammalian brain” (UNIVERSITE PARIS VI, priority 1998, published 2003)

How the values were obtained:
Type in all cases: in vivo
NMDA receptors = assay: Effect of DHEAS treatment on [3H]-MK801-labeled NMDA receptor sites in rat brain (quantitative autoradiography); conditions: male Wistar rats, 30 mg/kg i.p. twice daily for 5 days
Source text: 1.1 Labeling the NMDA Receptors with the Ligand [^3H]-MK801
The NMDA receptors in the rat brain were labeled by means of the quantitative autoradiography technique, thereby making it possible to visualize and quantify the number of receptors in different regions of the brain.
The radioactive ligand which makes it possible to specifically recognize the sites of the NMDA receptors is tritium-labeled dizocilpine (MK801), i.e. [^3H]-MK801 (Kemp et al. TINS (1987) 294-298).
Male rats (Wistar) weighing between 200 and 220 g were decapitated. Their brains were rapidly removed and placed in liquid isopentane at a temperature of −40° C. The brains were then stored at −80° C. until used.
Brain sections having a thickness of […] were obtained using a Frigocut 2800® cryostat, which is marketed by Reichert Jung.
The brain sections were preincubated in a 50 mM Tris-acetate, pH 7.4, buffer at 4° C. for 30 minutes. They were then dried rapidly at room temperature.
The sections were then incubated with the radioligand [^3H]-MK801, sold by New England Nuclear (Boston, Mass., USA) and having a specific activity of 24 Ci/mmol, at a concentration of 5 nM in the abovementioned buffer at 4° C. for a period of 4 hours.
Control sections were incubated with MK801, which was present at a concentration of 10^−5 M and which was not labeled with tritium, in order to determine non-specific binding.
All the sections were then rinsed for 5 seconds and then for 90 minutes in the same cold buffer.
The sections were dried at room temperature and then exposed on tritium-hyperfilm films (Amersham) at 4° C. in the dark for 4 weeks in autoradiography cassettes.
The films were developed for 2 minutes in a Kodak D19 developer and then fixed in Kodak Rapid fixer and finally rinsed for an hour in running water.
The autoradiographic labeling was quantified by densitometry using the RAG-200 software sold by BIOCOM (Les Ulis, France), and the binding was measured by relative optical density.
30 mg of DHEAS were administered/kg, intraperitoneally and twice daily, to non-castrated male Wistar rats for 5 days. The rats were sacrificed on the 5th day, 30 minutes after the last injection of DHEAS.
The apparent [^3H]-MK801-binding sites are measured by optical density OD for the total specific binding of [^3H]-MK801 in the cortex and different regions of the hippocampus: CA1; CA3; lateral blade of the dentate gyrus, DG1b, and the median blade of the dentate gyrus, DGmb.

[1] = tested on: NR1 subunit of the NMDA receptor; assay: Immunohistochemistry of NR1 subunits of NMDA receptors in rat brain after DHEAS treatment; conditions: after 5, 20 and 30 days of treatment, 30 mg/kg i.p. twice daily
Description: (§1) Male Wistar rats weighing 200-220 g (IFFA CREDO, Paris) were housed at 21° C. with a standard 12 h light/12 h dark cycle and with food and water being freely available. The animals received intraperitoneal (i.p.) injections of either the vehicle dimethyl sulfoxide (DMSO; 0.2 ml/250 g body weight(b.w.) or dehydroepiandrosterone sulfate (DHEAS; 30 mg/kg b.w. dissolved in DMSO (0.2 ml/250 g b.w)) twice daily, at 8 a.m. and 6 p.m., for a period of either 5, 20 or 30 days. The last injection was given at 8 a.m. of the 5th, 20th or 30th day. All the animals were killed 2 hours after the last injection. Six groups of animals (ten animals per group) were used. Three control groups received DMSO alone for a period of 5, 20 or 30 days respectively, and, in a similar manner, three groups received DHEAS treatment for a period of 5, 20 or 30 days respectively.
(§2) The rats were killed by decapitation and the brains were rapidly removed from the skull, quickly frozen in liquid isopentane at −40° C., and kept at −80° C. until sectioned. The frozen brains were cut into 20 um thick sections in a cryostat (Frigocut 2800, Reichert Jung). […]
(§3) The increase can be quantified by the SCION program developed at the National Institutes of Health (USA). […]

[2] = tested on: NR2 subunits of NMDA receptors (NMDA R2 A/B); assay: Immunohistochemistry of NR2 subunits of NMDA receptors in rat brain after DHEAS treatment; conditions: after 5, 20 and 30 days of treatment, 30 mg/kg i.p. twice daily
Description: as §1, §2, §3

Substance: dehydroepiandrosterone sulfate [DHEAS]
- number of [3H]-MK801 sites, OD (NMDA receptors; CA1): 54.01 ± 4.05
- number of [3H]-MK801 sites, OD (NMDA receptors; CA3): 33.37 ± 4.94
- number of [3H]-MK801 sites, OD (NMDA receptors; Cortex): 24.88 ± 2.73
- number of [3H]-MK801 sites, OD (NMDA receptors; DG1b (dentate gyrus, lateral blade)): 42.15 ± 4.31
- number of [3H]-MK801 sites, OD (NMDA receptors; DGmb (dentate gyrus, medial blade)): 43.13 ± 3.53
- number of NR1 subunits (in words) [1]: clear increase
- NR2 subunits (in words) [2]: slight increase
